Results on two compounds are retold here after patent US12697349B2, “Compositions and methods for treating RAS-mutant cancers” (MEMORIAL SLOAN KETTERING CANCER CENTER, priority 2019, dated 2026).

Assay [1] deals with MIAPaCa-2 (KRAS^G12C) and PSN1 (KRAS^G12R) pancreatic cancer cell lines. As to the kind of experiment: Drug combination growth inhibition and synergy analysis (CompuSyn, Combination Index). It is filed as cell-based, human. Conditions: KRAS-mutant pancreatic cancer cells MIAPaCa-2 and PSN1.
Text: Data presented as mean of three independent experiments (n=3). […] Each CI score represents data from at least three independent experiments.
CompuSyn software (Version 1.0) (http://www.combosyn.com), which is based on the Median-Effect Principle and the Combination Index-Isobologram Theorem was used to analyze drug synergism. Combination index (CI) values CI>1 indicates antagonism; CI=0.75-1.25 indicates additive effects; and <1 indicates synergism. Each GI (Growth inhibition) or CI score represents data from at least three independent experiments.
The test system of a further assay is mPDAC cells. As to the kind of experiment: In vitro growth inhibition by auranofin, CellTiter-Glo viable cell numbers. It is filed as cell-based, murine. As to conditions: 72 hr, increasing doses, normalized to DMSO-treated cells. The procedure: Relative proliferation was calculated by measuring viable cell numbers, and normalizing to the viable cell numbers of DMSO-treated cells, which were set to 1. Relative proliferation was then plotted as a function of auranofin concentration and fit to an exponential curve.
(§1) Proliferation assays. Competitive proliferation assays using shRNAs in TRMPV-Neo vector (with miR-30 or miR-E backbone) were performed as described previously (Huang et al., Genes Dev. 28(16): 1800-1814 (2014)). Assays for in vitro growth inhibition by auranofin or piperlongumine were performed by counting the viable cell numbers using CellTiter-Glo Luminescent Cell Viability Assay (Promega) after incubation of cells in the presence of increasing concentrations of auranofin or piperlongumine for 72 hr. Proliferation rates were calculated by dividing viable cell numbers at 72 hr by the viable cell numbers at 0 hr. Relative proliferation rates were calculated by normalizing to the proliferation rate of vehicle-treated cells.
Auranofin is an inhibitor of enzymatic activity of TXNRD1 (See Gromer et al., J Biol Chem 273(32): 20096-20101). Myricetin, manumycin A and protoporphyrin IX are also inhibitors of enzymatic activity of TXNRD1. mPDAC cells were treated with the TXNRD1 inhibitor auranofin or DMSO for 72 hr, and viability was measured. DMSO treatment served as a negative control causing a lack of growth inhibition. […]

For the next assay, the system named is MIAPaCa-2 (KRAS mutant). As to the kind of experiment: In vivo drug treatment, human xenograft model (KRAS mutant). Conditions: auranofin 10 mg/kg intraperitoneal, 2 weeks, versus vehicle. Set-up: species or system mice. The procedure: MIAPaCa-2 (KRAS mutant) or Colo357 (KRAS wild-type) organoids were transplanted into the pancreases of recipient mice. The mice were treated with vehicle only or auranofin (n=5) for 2 weeks. Tumor weights were measured and plotted.
(§2) In vivo drug treatment experiments. For auranofin treatment trials, 16 mg auranofin was first solved in 4 mL ethanol, and then diluted with 12 mL PBS to a final concentration of 1 mg/ml. Mice were given daily auranofin (10 mg/kg) or a similar volume of vehicle by intraperitoneal injection. The sick animals were sacrificed and pancreatic tissues and tumors were used for further analysis.
(§3) Growth inhibitory effects of pharmacological TXNRD1 inhibition was also examined in additional murine PDAC models generated by transplanting KRas^G12D; p53^−/− pancreatic cancer organoid lines into the pancreas of recipient mice. Mice were treated either with vehicle only, acting as a negative control, or auranofin. […] Thus, TXNRD1 is required for the maintenance of KRAS-mutant tumors and dependency in vivo.
Background: A xenograft is tissue or cells of one species grown in another, often human tumour cells in immunodeficient mice.

Assay [2] relates to human pancreatic cancer cell lines (KRAS mutant and wild-type KRAS). As to the kind of experiment: In vitro growth inhibition by auranofin or piperlongumine in a panel of pancreatic cancer cell lines. The assay is classed as cell-based. The protocol: Relative proliferation was calculated by measuring viable cell numbers, and normalizing to the viable cell numbers of DMSO-treated cells, which were set to 1. Relative proliferation was then plotted as a function of auranofin concentration and fit to an exponential curve. L3.3, Colo357, and BXPC3 have wild-type KRAS, and rest of the cell lines harbor a KRAS mutation.
Cancer cells harboring different KRAS mutations (G12C, G12D, G12V) or wild-type allele were assayed. Relative proliferation was calculated by measuring viable cell numbers, and normalizing to the viable cell numbers of DMSO-treated cells, which were set to 1. Relative proliferation was then plotted as a function of auranofin concentration and fit to an exponential curve.
as §1
Since the screening system discussed above and FIGS. 1A-3B was driven by mutant Kras, p53 loss and Myc overexpression, whether alterations in either gene could dictate sensitivity to TXNRD1 inhibition was investigated. Twelve pancreatic cancer cell lines were treated with increasing concentration of auranofin or DMSO. Among the cell lines used in this experiment L3.3, Colo357, and BXPC3 have wild-type KRAS. The cell lines PANC0327, MIAPaCa-2, PANC0213, ASPC1, 8898, CFPAC-1, L3.6pl, PANC1 and SU8686 harbored KRAS mutations.
To understand whether the observed difference between sensitivities of wild-type KRAS cells and KRAS mutant cells, was statistically significant, the IC50 data of the relative sensitivity of human PDAC cell lines to TXNRD1 inhibition by auranofin was compared. […] To understand the effect of KRAS mutations (G12C, G12D, G12V) on auranofin sensitivity, human pancreatic cancer cells harboring different KRAS mutations (G12C, G12D, G12V) or wild-type were treated with another TXNRD1 inhibitor piperlongumine.

The test system of assay [3] is KRas^G12D; p53^-/- pancreatic cancer organoid tumors. As to the kind of experiment: In vivo drug treatment, KRas^G12D; p53^-/- pancreatic cancer organoids transplanted into the pancreas. Conditions: 10 mg/kg, one per day, 5 days per week, intraperitoneal, 1 week, versus vehicle. Set-up: species or system mice. The procedure: KRas^G12D; p53^−/− organoids were transplanted in recipient mice, and the mice were treated with vehicle only or auranofin (n=3-4) for 1 week. Tumor weights were measured and plotted.
as §2, §3

Molecules are shown by their SMILES.

As for `CC(=O)OC[C@H]1O[C@@H]([S-])[C@H](OC(C)=O)[C@@H](OC(C)=O)[C@@H]1OC(C)=O.CCP(CC)CC.[Au+]` [auranofin], the antiproliferative effect entry in assay [1] is reported as “antiproliferative effects”. In the assay with mPDAC cells, the “growth inhibition of mPDAC cells (relative proliferation)” value is listed as “inhibited growth of mPDAC cells at submicromolar concentration”. Besides, the “tumor growth inhibition (tumor weights)” value with MIAPaCa-2 (KRAS mutant) was “growth inhibitory effects of pharmacological TXNRD1 inhibition was found”. For the same compound, the “correlation of anti-proliferative response (IC50) with KRAS mutational status” value in assay [2] (human PDAC cell lines, n=12) was “significant correlation”. Also, the “correlation of response (IC50) with p53 mutational status or MYC mRNA expression” value in assay [2] (human pancreatic cancer cell lines, n=9) is listed as “no significant correlation”. In assay [2] (twelve pancreatic cancer cell lines, 72 hours, increasing concentration), the “sensitivity to auranofin, KRAS mutant versus wild-type KRAS cells” value is given as “KRAS mutant cells were generally more sensitive to auranofin than the wild-type KRAS cells”. Besides, in assay [3], the “tumor growth (tumor weights)” value is “triggered a delay in Kras-mutant tumor growth”.

Regarding `COc1cc(/C=C/C(=O)N2CCC=CC2=O)cc(OC)c1OC` [piperlongumine], the “sensitivity to piperlongumine, KRAS mutant versus wild-type KRAS cells” value in assay [2] (cells with KRAS G12C, G12D, G12V or wild-type, 72 hours) was “KRAS mutant cells were more sensitive to piperlongumine than the wild-type KRAS cells”.
